Experimental data published in ChEMBL document CHEMBL1221311, “The synthesis and structure-activity relationship of 4-benzimidazolyl-piperidinylcarbonyl-piperidine analogs as histamine H3 antagonists” (Bioorg Med Chem Lett, 2010).
pIC50, pKi: −log10 of the molar value.

Assays:
Histamine H3 receptor = Histamine H3 receptor (Cavia porcellus, UniProt Q9JI35); assay: Displacement of [3H]Nalpha-methylhistamine from histamine H3 receptor in guinea pig brain
Cytochrome P450 2D6 = Cytochrome P450 2D6 (Homo sapiens, UniProt P10635); assay: Inhibition of CYP2D6 in human liver microsomes; format: ADME, Microsome
Cytochrome P450 3A4 = Cytochrome P450 3A4 (Homo sapiens, UniProt P08684); assay: Inhibition of CYP3A4 in human liver microsomes; format: ADME, Microsome
Cytochrome P450 2C9 = Cytochrome P450 2C9 (Homo sapiens, UniProt P11712); assay: Inhibition of CYP2C9 in human liver microsomes; format: ADME, Microsome
Cavia porcellus = assay: Antihypertensive activity in po dosed guinea pig assessed as inhibition of (R)-alpha-methylhistamine-induced hypertension; format: functional
[1] = Clearance in human hepatocytes assessed per million cells; format: ADME, cell-based, Liver, Hepatocyte
[2] = Clearance in rat hepatocytes assessed per million cells; format: ADME, cell-based, Liver, Hepatocyte
[3] = AUC in rat at 10 mg/kg, po; format: ADME, organism-based; design: dose 10 mg/kg, route oral; settings: plasma
hERG (KCNH2) = hERG (KCNH2) (Homo sapiens, UniProt Q12809); assay: Inhibition of human ERG at 10 uM
[4] = molecular target: Histamine H3 receptor (Cavia porcellus) (UniProt Q9JI35); assay: Displacement of [3H]Nalpha-methylhistamine from histamine H3 receptor in guinea pig brain at 1 uM
Chain of Histamine H3 receptor (Cavia porcellus) (Q9JI35 whole entry): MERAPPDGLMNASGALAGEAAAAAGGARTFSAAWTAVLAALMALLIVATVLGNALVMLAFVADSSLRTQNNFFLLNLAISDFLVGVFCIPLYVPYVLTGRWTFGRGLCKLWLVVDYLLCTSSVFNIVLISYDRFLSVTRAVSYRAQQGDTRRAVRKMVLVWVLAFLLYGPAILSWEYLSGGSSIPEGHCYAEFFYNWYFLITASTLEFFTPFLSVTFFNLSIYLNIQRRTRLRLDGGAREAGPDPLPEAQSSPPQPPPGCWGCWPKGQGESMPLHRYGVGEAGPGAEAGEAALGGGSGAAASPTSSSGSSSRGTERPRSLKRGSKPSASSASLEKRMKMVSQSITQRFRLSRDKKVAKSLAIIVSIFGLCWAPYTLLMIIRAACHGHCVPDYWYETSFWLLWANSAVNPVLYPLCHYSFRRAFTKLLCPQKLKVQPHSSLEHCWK

Chain of Histamine H3 receptor (Q9JI35 whole entry): as above
Chain of hERG (KCNH2) (Q12809 whole entry): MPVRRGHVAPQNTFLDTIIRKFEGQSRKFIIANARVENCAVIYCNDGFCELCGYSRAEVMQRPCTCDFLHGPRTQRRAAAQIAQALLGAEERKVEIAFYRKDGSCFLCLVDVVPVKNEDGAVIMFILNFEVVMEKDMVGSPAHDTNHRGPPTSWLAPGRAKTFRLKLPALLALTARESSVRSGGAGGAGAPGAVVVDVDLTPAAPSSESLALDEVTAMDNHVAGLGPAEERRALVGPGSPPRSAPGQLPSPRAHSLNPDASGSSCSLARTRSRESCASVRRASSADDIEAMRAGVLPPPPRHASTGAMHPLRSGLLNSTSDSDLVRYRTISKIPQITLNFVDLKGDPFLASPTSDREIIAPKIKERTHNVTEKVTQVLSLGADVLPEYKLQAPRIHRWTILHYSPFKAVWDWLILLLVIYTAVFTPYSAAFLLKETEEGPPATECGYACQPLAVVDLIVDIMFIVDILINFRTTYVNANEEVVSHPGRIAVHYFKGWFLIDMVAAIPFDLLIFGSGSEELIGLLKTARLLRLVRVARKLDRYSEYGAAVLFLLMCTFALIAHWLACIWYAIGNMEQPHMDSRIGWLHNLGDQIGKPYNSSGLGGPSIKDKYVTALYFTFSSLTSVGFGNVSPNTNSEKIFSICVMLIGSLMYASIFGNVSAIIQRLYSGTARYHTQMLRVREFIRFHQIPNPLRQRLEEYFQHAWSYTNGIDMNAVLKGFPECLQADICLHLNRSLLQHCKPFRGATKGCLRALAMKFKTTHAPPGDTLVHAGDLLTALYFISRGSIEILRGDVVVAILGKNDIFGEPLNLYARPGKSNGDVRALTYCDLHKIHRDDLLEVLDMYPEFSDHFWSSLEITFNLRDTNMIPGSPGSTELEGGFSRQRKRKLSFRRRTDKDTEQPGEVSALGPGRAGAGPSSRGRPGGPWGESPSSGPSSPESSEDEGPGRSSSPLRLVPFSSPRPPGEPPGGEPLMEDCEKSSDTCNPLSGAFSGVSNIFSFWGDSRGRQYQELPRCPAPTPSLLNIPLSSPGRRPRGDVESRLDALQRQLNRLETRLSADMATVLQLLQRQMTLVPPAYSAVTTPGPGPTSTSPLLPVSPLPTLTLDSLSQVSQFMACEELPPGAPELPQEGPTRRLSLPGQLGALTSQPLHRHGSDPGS
Chain of Cytochrome P450 3A4 (P08684 whole entry): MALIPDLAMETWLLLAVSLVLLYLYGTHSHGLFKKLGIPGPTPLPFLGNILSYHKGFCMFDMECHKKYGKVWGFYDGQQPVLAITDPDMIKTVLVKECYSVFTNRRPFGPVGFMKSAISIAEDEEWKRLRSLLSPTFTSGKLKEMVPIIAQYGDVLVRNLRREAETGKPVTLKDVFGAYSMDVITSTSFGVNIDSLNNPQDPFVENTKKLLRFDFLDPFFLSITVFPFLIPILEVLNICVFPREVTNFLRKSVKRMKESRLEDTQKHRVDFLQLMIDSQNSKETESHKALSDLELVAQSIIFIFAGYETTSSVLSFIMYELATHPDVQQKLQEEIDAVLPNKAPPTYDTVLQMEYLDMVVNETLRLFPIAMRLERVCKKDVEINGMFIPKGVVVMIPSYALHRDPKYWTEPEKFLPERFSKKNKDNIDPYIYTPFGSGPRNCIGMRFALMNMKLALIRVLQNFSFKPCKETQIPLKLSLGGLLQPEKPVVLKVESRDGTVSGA
Chain of Cytochrome P450 2C9 (P11712 whole entry): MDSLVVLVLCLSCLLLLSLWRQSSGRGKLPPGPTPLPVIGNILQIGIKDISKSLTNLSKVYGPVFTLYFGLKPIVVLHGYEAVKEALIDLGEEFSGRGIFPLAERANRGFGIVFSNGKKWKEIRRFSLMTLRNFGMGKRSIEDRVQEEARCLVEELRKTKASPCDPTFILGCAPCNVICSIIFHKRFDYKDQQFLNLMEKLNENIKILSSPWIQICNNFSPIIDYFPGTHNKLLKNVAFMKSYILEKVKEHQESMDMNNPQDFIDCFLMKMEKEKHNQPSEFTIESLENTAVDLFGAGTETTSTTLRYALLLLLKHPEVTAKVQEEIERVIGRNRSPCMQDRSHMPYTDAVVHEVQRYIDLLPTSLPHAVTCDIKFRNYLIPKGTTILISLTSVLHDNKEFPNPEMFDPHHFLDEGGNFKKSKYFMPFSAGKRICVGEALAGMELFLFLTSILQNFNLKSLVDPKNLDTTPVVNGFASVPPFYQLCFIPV
Chain of Cytochrome P450 2D6 (P10635 whole entry): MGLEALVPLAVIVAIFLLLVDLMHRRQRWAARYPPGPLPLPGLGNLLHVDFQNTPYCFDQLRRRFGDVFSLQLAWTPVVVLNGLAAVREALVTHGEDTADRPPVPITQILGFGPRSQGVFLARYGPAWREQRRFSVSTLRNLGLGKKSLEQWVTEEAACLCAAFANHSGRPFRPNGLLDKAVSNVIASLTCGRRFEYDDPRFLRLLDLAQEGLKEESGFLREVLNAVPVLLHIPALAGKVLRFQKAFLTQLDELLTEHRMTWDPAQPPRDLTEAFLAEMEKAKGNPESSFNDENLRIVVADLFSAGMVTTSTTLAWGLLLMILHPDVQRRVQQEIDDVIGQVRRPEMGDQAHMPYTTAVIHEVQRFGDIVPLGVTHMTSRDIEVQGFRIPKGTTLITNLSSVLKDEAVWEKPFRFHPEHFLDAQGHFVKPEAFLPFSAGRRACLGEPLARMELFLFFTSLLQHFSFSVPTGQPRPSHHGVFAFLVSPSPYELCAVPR

Row | Compound | pKi (Histamine H3 receptor) | pIC50 (Cytochrome P450 2D6) | pIC50 (Cytochrome P450 3A4) | also measured
1 | O=C(C1CCN(Cc2ccncc2)CC1)N1CCC(O)(Cc2ccccc2)CC1 | 7.52 |  |  | 
2 | O=C(C1CCN(Cc2ccncc2)CC1)N1CCC2(CC1)C(=O)NCN2c1ccccc1 | 7.70 |  |  | 
3 | CN(C)CCCn1c(=O)n(C2CCN(C(=O)C3CCN(Cc4ccncc4)CC3)CC2)c2ccccc21 |  | 5.80 | < 4.52 | pIC50 (Cytochrome P450 2C9): < 4.70
4 | O=C(C1CCN(Cc2ccccn2)CC1)N1CCC(n2c(=O)[nH]c3ccccc32)CC1 |  |  |  | inhibition [4]: 40%
5 | O=C(C1CCN(Cc2ccncc2)CC1)N1CCC(n2c(=O)[nH]c3ccccc32)CC1 | 8.70 | < 4.70 | 5.02 | pIC50 (Cytochrome P450 2C9): < 4.70; ED50 (Cavia porcellus): < 0.3 mg/kg; hepatocyte CLint [1]: < 10 µL/min/1e6 cells; hepatocyte CLint [2]: < 10 µL/min/1e6 cells; AUC [3]: 0.24 µM·h; inhibition at 10 µM (hERG (KCNH2)): < 10%
6 | O=C(C1CCN(Cc2ccncc2)CC1)N1CCN(C2CCCCC2)CC1 | 7.85 |  |  | 
7 | CN1CCN(C(=O)C2CCN(Cc3ccncc3)CC2)CC1 | 6.45 |  |  | 
8 | Cn1ccc(CN2CCC(C(=O)N3CCC(n4c(=O)[nH]c5ccccc54)CC3)CC2)c1 |  |  |  | inhibition [4]: 42%
9 | O=C(C1CCN(Cc2ccncc2Cl)CC1)N1CCC(n2c(=O)[nH]c3ccccc32)CC1 | 6.65 |  |  | 
10 | O=c1[nH]c2ccccc2n1C1CCN(CC2CCN(Cc3ccncc3)CC2)CC1 | 7.62 |  |  | 
11 | CC(c1ccncc1)N1CCC(C(=O)N2CCC(n3c(=O)[nH]c4ccccc43)CC2)CC1 (configuration not stated) | 7.70 |  |  | 
12 | O=C(C1CCN(Cc2ccnc3ccccc23)CC1)N1CCC(n2c(=O)[nH]c3ccccc32)CC1 | 6.17 |  |  | 
13 | O=C(C1CCN(Cc2ccncc2)CC1)N1CCN(c2ccccc2)CC1 | 7.40 |  |  | 
14 | O=C(C1CCN(Cc2ccsc2)CC1)N1CCC(n2c(=O)[nH]c3ccccc32)CC1 | 6.98 |  |  | 
15 | O=C(C1CCN(Cc2cccnc2)CC1)N1CCC(n2c(=O)[nH]c3ccccc32)CC1 | 6.76 |  |  | 
16 | O=C(N1CCC(n2c(=O)[nH]c3ccccc32)CC1)N1CCN(Cc2ccncc2)CC1 | 7.77 |  |  | 
17 | O=C(CC1CCN(Cc2ccncc2)CC1)N1CCC(n2c(=O)[nH]c3ccccc32)CC1 | 6.74 |  |  | 
18 | O=C(NCCc1ccccc1)c1cccc(CN2CCN(C(=O)C3CCN(Cc4ccncc4)CC3)CC2)c1 | 7.57 |  |  | 
19 | O=C(c1ccncc1)N1CCC(C(=O)N2CCC(n3c(=O)[nH]c4ccccc43)CC2)CC1 |  |  |  | inhibition [4]: 11%
20 | O=C(C1CCN(Cc2ccncc2)CC1)N1CCN(Cc2ccccc2)CC1 | 7.55 |  |  | 
21 | O=C(C1CCN(CCc2ccncc2)CC1)N1CCC(n2c(=O)[nH]c3ccccc32)CC1 | 6.27 |  |  | 
22 | O=C(C1CCN(Cc2ccncc2)CC1)N1CCN(Cc2cccc(Cl)c2)CC1 | 8.20 |  |  | 
23 | O=C(C1CCN(Cc2ccoc2)CC1)N1CCC(n2c(=O)[nH]c3ccccc32)CC1 | 6.69 |  |  | 
24 | O=C(c1ccccc1)C1CCN(C(=O)C2CCN(Cc3ccncc3)CC2)CC1 | 7.77 |  |  | 
25 | COCCCNC(=O)c1cccc(CN2CCN(C(=O)C3CCN(Cc4ccncc4)CC3)CC2)c1 | 6.68 |  |  | 
26 | O=C(C1CCN(Cc2cc[n+]([O-])cc2)CC1)N1CCC(n2c(=O)[nH]c3ccccc32)CC1 | 6.36 |  |  | 
27 | O=C(C1CCN(Cc2ccncc2)CC1)N1CCC(Cc2ccccc2)CC1 | 8.26 |  |  | 
28 | Cn1cc(CN2CCC(C(=O)N3CCC(n4c(=O)[nH]c5ccccc54)CC3)CC2)c2ccccc21 |  |  |  | inhibition [4]: 30%

Continued, in another order:

Row | pKi (Histamine H3 receptor) | pIC50 (Cytochrome P450 2D6) | pIC50 (Cytochrome P450 3A4) | Compound | also measured
29 | 9.60 | 4.70 | 6.40 | COc1ccc(Cn2c(=O)n(C3CCN(C(=O)C4CCN(Cc5ccncc5)CC4)CC3)c3ccccc32)cc1 | 
30 | 9.70 | 4.98 | < 4.52 | CN(C)CCn1c(=O)n(C2CCN(C(=O)C3CCN(Cc4ccncc4)CC3)CC2)c2ccccc21 | pIC50 (Cytochrome P450 2C9): < 4.70; ED50 (Cavia porcellus): < 0.3 mg/kg; hepatocyte CLint [1]: < 10 µL/min/1e6 cells; hepatocyte CLint [2]: < 10 µL/min/1e6 cells; AUC [3]: 0.24 µM·h; inhibition at 10 µM (hERG (KCNH2)): < 10%
31 | 8.70 | 5.38 | 6.52 | O=C(C1CCN(Cc2ccncc2)CC1)N1CCC(n2c(=O)n(Cc3cccc(Cl)c3)c3ccccc32)CC1 | 
32 | 9.52 | 5.25 | 6.70 | COc1cccc(Cn2c(=O)n(C3CCN(C(=O)C4CCN(Cc5ccncc5)CC4)CC3)c3ccccc32)c1 | 
33 | 9.70 | 5.04 | 6.40 | O=C(C1CCN(Cc2ccncc2)CC1)N1CCC(n2c(=O)n(Cc3ccccc3)c3ccccc32)CC1 | 
34 | 8.77 | < 4.70 | 4.87 | CCOCCn1c(=O)n(C2CCN(C(=O)C3CCN(Cc4ccncc4)CC3)CC2)c2ccccc21 | 
35 | 9.10 | < 4.70 | 4.97 | CCOCCCn1c(=O)n(C2CCN(C(=O)C3CCN(Cc4ccncc4)CC3)CC2)c2ccccc21 | 
36 | 8.35 | 5.17 | 6.30 | O=C(C1CCN(Cc2ccncc2)CC1)N1CCC(n2c(=O)n(Cc3ccccc3Cl)c3ccccc32)CC1 | 
37 | 8.37 | < 4.70 | 5.12 | Cn1c(=O)n(C2CCN(C(=O)C3CCN(Cc4ccncc4)CC3)CC2)c2ccccc21 | 
38 | 9.30 | < 4.70 | 4.52 | O=C(C1CCN(Cc2ccncc2)CC1)N1CCC(n2c(=O)n(CCN3CCOCC3)c3ccccc32)CC1 | pIC50 (Cytochrome P450 2C9): < 4.70; ED50 (Cavia porcellus): < 0.3 mg/kg; hepatocyte CLint [1]: < 10 µL/min/1e6 cells; hepatocyte CLint [2]: < 10 µL/min/1e6 cells; AUC [3]: 0.24 µM·h; inhibition at 10 µM (hERG (KCNH2)): < 10%
39 | 9.02 | < 4.70 | < 4.52 | O=C(C1CCN(Cc2ccncc2)CC1)N1CCC(n2c(=O)n(CCO)c3ccccc32)CC1 | 
40 | 9.40 | 5.72 | 5.82 | CC(C)Cn1c(=O)n(C2CCN(C(=O)C3CCN(Cc4ccncc4)CC3)CC2)c2ccccc21 | 
41 | 9.82 | 5.43 | 4.52 | O=C(C1CCN(Cc2ccncc2)CC1)N1CCC(n2c(=O)n(CCN3CCCCC3)c3ccccc32)CC1 | pIC50 (Cytochrome P450 2C9): < 4.70; ED50 (Cavia porcellus): < 0.3 mg/kg; hepatocyte CLint [1]: < 10 µL/min/1e6 cells; hepatocyte CLint [2]: < 10 µL/min/1e6 cells; AUC [3]: 0.24 µM·h; inhibition at 10 µM (hERG (KCNH2)): < 10%
42 | 9.19 | < 4.70 | 5.22 | CC(C)OCCn1c(=O)n(C2CCN(C(=O)C3CCN(Cc4ccncc4)CC3)CC2)c2ccccc21 | 
43 | 9.05 | 5.24 | 6.40 | O=C(C1CCN(Cc2ccncc2)CC1)N1CCC(n2c(=O)n(Cc3ccc(Cl)cc3)c3ccccc32)CC1 | 
44 | 8.70 | < 4.70 | 4.96 | COCCn1c(=O)n(C2CCN(C(=O)C3CCN(Cc4ccncc4)CC3)CC2)c2ccccc21 | 
45 | 8.70 | 4.70 | 5.05 | O=C(C1CCN(Cc2ccncc2)CC1)N1CCC(n2c(=O)n(CCOc3ccccc3)c3ccccc32)CC1 | 
